# pKd: −log10 of the molar value. Numbered stars: 1 amine (or outer) side, 2 acyl side, 3 side chain; on linkers, the order of the positions; unused ones are H or OH. Square brackets hold non-standard residues; d marks the D form. Peptide text beside a SMILES is read from it. * marks the point of attachment. 5FAM = O=C1OC2(c3ccc(O)cc3Oc3cc(O)ccc32)c2ccc(C(=O)*)cc21; NHCH2C6H4(4-CH2CONH2) = NC(=O)Cc1ccc(CN*)cc1; X1 = O=C(Cc1ccc(CN[*:1])cc1)[*:2]
# Legend:
# IL-6R = target: T1, IL-6R (Homo sapiens, UniProt P08887); assay: MST binding affinity of resynthesized NNP hits to IL-6R; conditions: IL-6R; ester versus amide amino acid-PAM bond polymers, library NNP2
# T1 construct: purchased Creative Biomart IL6R-584H
# T1 sequence (P08887 20-355 limits assumed): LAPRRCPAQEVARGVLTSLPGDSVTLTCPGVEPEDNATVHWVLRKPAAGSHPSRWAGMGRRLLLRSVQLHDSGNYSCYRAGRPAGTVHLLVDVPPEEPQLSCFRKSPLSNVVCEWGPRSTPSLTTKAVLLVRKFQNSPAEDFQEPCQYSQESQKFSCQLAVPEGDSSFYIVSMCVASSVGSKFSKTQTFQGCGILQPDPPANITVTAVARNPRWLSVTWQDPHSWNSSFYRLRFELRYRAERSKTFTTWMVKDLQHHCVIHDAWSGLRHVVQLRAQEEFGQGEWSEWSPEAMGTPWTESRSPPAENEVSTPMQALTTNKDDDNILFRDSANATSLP
# How it was run: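 Microscale thermophoresis at room temperature, triplicate, 15, 30 and 45 min incubations; targets labeled with RED-NHS 647 dye. Buffers (all 20 mM HEPES pH 7.4 unless noted): IL-6 150 mM KCl, 10 mM MgCl2, 0.1% Pluronic F-127; IL-6R 150 mM NaCl, 10 mM MgCl2, 0.05% Tween-20; TNFα 10 mM HEPES, 150 mM NaCl, 10 mM MgCl2, 0.05% Polysorbate-20; ASGPR adds 2 mM CaCl2, 0.05% Pluronic F-127, 1 mM DTT.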
# proteinase K = proteinase K (Parengyodontium album, UniProt P06873); assay: Proteinase K stability assay; format: in vitro ADME; conditions: 37 degrees C; aliquots at 0, 1.5 and 16 hours; LC-MS
# Chain of proteinase K (P06873 106-384, species assumed): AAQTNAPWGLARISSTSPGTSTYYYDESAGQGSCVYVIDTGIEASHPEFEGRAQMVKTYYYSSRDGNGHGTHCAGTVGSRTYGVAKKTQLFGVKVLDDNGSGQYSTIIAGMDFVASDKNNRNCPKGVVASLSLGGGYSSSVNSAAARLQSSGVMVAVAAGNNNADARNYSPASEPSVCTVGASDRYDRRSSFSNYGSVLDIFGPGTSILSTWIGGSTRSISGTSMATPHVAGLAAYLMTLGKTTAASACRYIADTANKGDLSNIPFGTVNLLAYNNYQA
# Procedure: For proteinase K stability, solutions of each tested compound (200 μM) in 10% DMSO and 20 mM Tris HCl at pH 8 were prepared. Proteinase K was added to a final concentration of […] and 100 μM of the tested compound in 5% DMSO and 10 mM Tris HCl at pH 8. The solutions were incubated at 37 degrees C. and aliquots after 0 hours, 1.5 hours and 16 hours were analyzed by LC-MS.
# [1] = format: in vitro ADME; conditions: 17 h
# Procedure: For human plasma stability, lyophilized human plasma was reconstituted in sterile water for injection, aliquoted into 200 uL aliquots and stored frozen at −80 degrees C. prior to the stability studies. For the stability studies three aliquots per NNP were thawed at room temperature. An additional set of three aliquots for a positive control peptide (Angiotensin I) were also thawed. The incubations for the plasma stability were initiated by mixing 2 uL of a 2 mM stock solution of NNP IL6R-87-8 or positive control in DMSO with the 200 uL thawed plasma aliquot. After briefly vortex-mixing, 50 uL zero-time-point samples were removed, mixed with 50 uL of water and 400 uL of acetonitrile and frozen on dry ice until all time point samples had been collected. The samples were incubated at 37 degrees C. with samples removed and water/acetonitrile added at 1 hour, 3 hours, and 17 hours. Proteins were precipitated by centrifuging the samples at 17,000 G, 4 degrees C. for 1 hour. The supernatants were removed and concentrated in a centrifugal vacuum concentrator (GeneVac Genie II) at 45 degrees C. until the volume had been reduced to around 60 uL. […]
compound,measurement,setting,value
"CC(C)C[C@H](NC(=O)[C@@H](CCCNC(=N)N)NC(=O)[C@@H](C)NC(=O)Cc1ccc(CNC(=O)[C@H](CC(C)C)NC(=O)[C@@H](CCCNC(=N)N)NC(=O)[C@@H](CCC(=O)O)NC(=O)Cc2ccc(CNC(=O)[C@H](C)NC(=O)[C@@H](CCCCN)NC(=O)[C@@H](Cc3ccc(O)cc3)NC(=O)Cc3ccc(CNC(=O)[C@H](C)NC(=O)[C@@H](CCCNC(=N)N)NC(=O)[C@@H](Cc4ccccc4)NC(=O)Cc4ccc(CNC(=O)[C@H](Cc5ccccc5)NC(=O)[C@@H](CO)NC(=O)[C@@H](CCCNC(=N)N)NC(=O)Cc5ccc(CNC(=O)[C@@H](NC(=O)[C@@H](CO)NC(=O)[C@@H](Cc6ccc(O)cc6)NC(=O)Cc6ccc(CNC(=O)[C@H](Cc7ccccc7)NC(=O)[C@H](NC(=O)[C@@H](CC(N)=O)NC(=O)c7ccc8c(c7)C(=O)OC87c8ccc(O)cc8Oc8cc(O)ccc87)C(C)C)cc6)C(C)C)cc5)cc4)cc3)cc2)cc1)C(=O)NCc1ccc(CC(=O)N2CCC[C@@H]2C(=O)N[C@H](CCCNC(=N)N)C(=O)N[C@@H](C)C(=O)NCc2ccc(CC(=O)N[C@H](Cc3ccccc3)C(=O)N[C@H](CCCCN)C(=O)NCC(=O)NCc3ccc(CC(N)=O)cc3)cc2)cc1 [IL6R-87-8, Fluorescein-(D)Asn-(D)Val-(L)Phe-PAM-(D)Tyr-(D)Ser-(L)Val-PAM-(D)Arg-(D)Ser-(L)Phe-PAM-(D)Phe-(D)Arg-(L)Ala-PAM-(D)Tyr-(D)Lys-(L)Ala-PAM-(D)Glu-(D)Arg-(L)Leu-PAM-(D)Ala-(D)Arg- (L)Leu-PAM-(D)Pro-(D)Arg-(L)Ala-PAM-(D)Phe-(D)Lys-Gly-PAM] (5FAM-[dN][dV]F[X1][dY][dS]V[X1][dR][dS]F[X1][dF][dR]A[X1][dY][dK]A[X1][dE][dR]L[X1][dA][dR]L[X1][dP][dR]A[X1][dF][dK]G-{NHCH2C6H4(4-CH2CONH2)})",pKd,IL-6R,9.21
same,Stability in the presence of proteinase K,proteinase K,minimal degradation
same,Stability in human plasma,[1],stayed largely intact

# From patent US20230393140A1, “BINDING ASSAYS INVOLVING A PLURALITY OF SYNTHETIC COMPOUNDS, TARGETS, AND COUNTER TARGETS” (SRI International, priority 2020, published 2023)
